The EC50 is the concentration needed to bring the measured effect to its halfway point. Broadly, the IC50 is the point on the concentration scale where inhibition reaches its midpoint.

The values below come from patent US20210317090A1, “AMINO ACID DEPLETION AGENTS AS ANTIPROLIFERATIVE AGENTS” (University of Central Florida Research Foundation, Inc., priority 2018, published 2021).

One test concerns CHO K1 cells. The experiment in a line: cells. In kind it is cell-based, Chinese hamster. Particulars: for EC50: Cricetulus griseus, Ant-44 0.5 μM. The protocol: Various embodiments involve the concept that a non-toxic PTI agent would inhibit the uptake of the cytotoxic polyamine conjugate Ant-44 (11) and rescue cells from Ant-44 induced toxicity. For example, using the IC50 dose of Ant-44, PTIs could be identified by measuring a compound's ability to block Ant-44 entry and rescue cells back to >90% viability. […] This toxic dose of Ant-44 was kept constant throughout the assay, while the candidate PTI compound was added in increasing concentrations up to its MTD.
Compounds (9 and 10) were tested at 5 μM and 7 μM. CHO K1 cells were treated in a 96-well plate with a toxic dose of Ant-44 (2.4 μM) alone and dosed with the candidate compounds (at 5 μM and 7 μM) and incubated for 48 h at 37° C.
To further explore this effect, development of various embodiments included modifying an original screen to use a lower dose of Ant-44 (0.5 μM) to improve the dose range of 9 and 10 that could be tested. In this regard, Ant-44 was dosed at 0.5 μM alone and in combination with increasing doses of compounds 9 (1666.177) and 10 (1666.255) and the CHO K1 cells were incubated for 48 h at 37° C., and the results are shown in FIG. 5. The red line represents the % cell viability of the Ant-44 only control. The Ant44 potentiation assay EC50 value is defined as the concentration of the candidate compound required to decrease the cell viability to half that of the Ant-44 only control. Both compounds 9 and 10 were effective at decreasing cell viability, when used in combination with Ant-44 in a dose dependent fashion.
FIG. 5 is an example according to various embodiments, illustrating potentiation of Ant-44 toxicity by compounds 9 and 10 in CHO K1 cells. Cells were incubated for 48 h at 37° C. with the respective compound and a fixed concentration of cytotoxic Ant-44 (0.5 μM). A 1 mM AG solution was incubated with the CHO K1 cells for 24 h prior to the addition of candidate compound. This was necessary to protect Ant-44 from the amine oxidases present in the media containing fetal bovine serum. […] Both compounds are nontoxic at the highest concentration tested (5 μM).

The test system of a further test is L3.6pl cells. As to the kind of experiment: Intracellular polyamine and Ant-44 levels (N-dansylation, HPLC) in L3.6pl cells. In kind it is cell-based, human. To be noted: 3.3 μM compound 10 (SR isomer), FIG. 10I.
For a further test, the target named is T1, LAT-1 (Homo sapiens, UniProt Q01650).
T1 construct: endogenous in cells; host or cells: L3.6pl human pancreatic cancer cells
The experiment in a line: 3H-Leucine uptake assay. In kind it is cell-based. To be noted: L3.6pl cells, increasing concentration, 15 min uptake (FIG. 10D, 10E). The protocol: ^3H-Leucine uptake experiments were performed according to the protocol developed by Hälfliger et al. (2018) (referenced below with the following changes. Briefly, cells were seeded at 60% confluency in a 24-well plate and incubated for 4 h at 37° C. After 4 hours, different concentrations of compound 10 were added and the cells were then incubated overnight. L-^3H-leucine uptake inhibition was measured for 15 minutes using a 12 μM stock of L-[^3H]leucine (79 Ci/mmol). The final concentration of ^3H-leucine in each well was 1.2 uM. This concentration produced a CPM reading of ˜4000 cpm for the control. Uptake was terminated by removing the buffer solution followed by washing the cells with cold Na^+-free Hank's Balanced Salt Solution. Cells were then lysed to give ˜500 μL of cell lysate. A portion of the cell lysate (200 μL) was mixed with Scintiverse™ BD Cocktail for determining radiocounts. The radioactivity was measured with a scintillation counter (Beckman Coulter LS 6500 Multi-Purpose Scintillation Counter). Another portion of the cell lysate (300 μL) was used for protein determination using the BCA method. The final data was expressed as cpm/microgram of protein to account for the different number of cells remaining after the experiment. This was necessary because compound 10 was toxic and less cells were present after the overnight incubation (24 h). […]

In the next test the test system is CHO-MG cells. As to the kind of experiment: Cytotoxicity IC50 (MTS) in polyamine-transport-deficient CHO-MG cells. In kind it is cell-based, Chinese hamster. Particulars: Cricetulus griseus, 48 h. Here is the method: Regarding the biological studies performed in the following examples, it is noted that CHO K1, CHO-MG, and L3.6pl cells were grown in RPMI 1640 medium supplemented with 10% fetal bovine serum (FBS) and 1% penicillin/streptomycin. All cells were grown at 37° C. under a humidified 5% CO2 atmosphere. Aminoguanidine (1 mM used for CHO K1 and CHOMG cells and 250 μM for L3.6pl) was added to the growth medium to prevent oxidation of the compounds of the bovine serum amine oxidase enzyme that is present in calf serum. The cells used were in early to mid log phase and CHO and CHOMG were plated out at 1000 cells/well, whereas the L3.6pl cells were plated at 500 cells/well in a 96 well plate format.
This example illustrates aspects according to various embodiments pertaining to IC50 determinations and cell viability studies. Cell growth was assayed in sterile 96-well microtiter plates (Costar 3599, Corning, N.Y.). CHO K1 or CHOMG cells were plated at 1,000 cells/70 μL and L3.6pl cells at 500 cells/70 μL. […] After drug exposure (e.g., for 48 h for CHO K1 and CHO-MG and 48 h or 72 h for L3.6pl), cell growth was determined by measuring formazan formation from the 3-(4,5dimethylthiazol-2-yl)-5-(3-carboxymethoxyphenyl)-2-(4-sulfenyl)-2H tetrazolium, inner salt (MTS) using SynergyMx Biotek microplate reader for absorbance (490 nm) measurements.^27 All experiments were run in triplicate.

Read-outs that look alike come from different tables or passages of the source.

T1 sequence (Q01650 whole entry): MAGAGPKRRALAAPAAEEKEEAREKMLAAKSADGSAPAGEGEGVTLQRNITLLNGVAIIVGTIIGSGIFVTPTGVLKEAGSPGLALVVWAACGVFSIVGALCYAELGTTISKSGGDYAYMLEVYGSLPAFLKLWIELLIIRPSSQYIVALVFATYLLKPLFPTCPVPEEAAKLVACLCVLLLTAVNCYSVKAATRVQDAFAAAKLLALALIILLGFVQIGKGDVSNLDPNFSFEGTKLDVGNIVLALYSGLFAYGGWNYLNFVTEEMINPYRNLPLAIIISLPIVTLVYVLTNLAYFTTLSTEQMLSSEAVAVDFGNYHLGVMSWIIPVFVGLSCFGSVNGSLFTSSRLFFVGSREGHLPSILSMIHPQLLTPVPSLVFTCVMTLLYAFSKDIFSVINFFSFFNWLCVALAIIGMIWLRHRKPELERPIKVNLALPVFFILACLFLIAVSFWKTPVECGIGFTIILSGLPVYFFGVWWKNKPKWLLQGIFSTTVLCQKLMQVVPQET
T1 sequence (P08195 102-630 partner): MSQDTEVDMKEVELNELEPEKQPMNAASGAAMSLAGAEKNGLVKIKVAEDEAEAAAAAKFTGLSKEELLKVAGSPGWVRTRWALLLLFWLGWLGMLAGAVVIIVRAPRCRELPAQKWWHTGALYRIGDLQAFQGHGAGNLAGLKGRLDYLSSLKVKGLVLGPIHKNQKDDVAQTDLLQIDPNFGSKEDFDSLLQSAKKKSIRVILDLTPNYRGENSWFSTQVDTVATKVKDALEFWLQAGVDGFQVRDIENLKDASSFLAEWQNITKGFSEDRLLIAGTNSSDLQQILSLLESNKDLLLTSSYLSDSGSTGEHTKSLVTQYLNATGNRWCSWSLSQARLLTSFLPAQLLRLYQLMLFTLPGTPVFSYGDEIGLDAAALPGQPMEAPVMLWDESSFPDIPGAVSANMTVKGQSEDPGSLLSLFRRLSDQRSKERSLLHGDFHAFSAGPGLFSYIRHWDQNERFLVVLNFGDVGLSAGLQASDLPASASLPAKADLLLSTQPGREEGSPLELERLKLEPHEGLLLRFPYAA

For `CC(C)CCN1CCN(C(CNCc2ccccc2)CC2CCCCC2)CC1CC(C)C.Cl.Cl.Cl` (stereo not drawn) [Compound 10, Benzyl-{3-cyclohexyl-2-[3-isobutyl-4-(3-methyl-butyl)-piperazin-1-yl]-propyl}-amine trihydrochloride salt], in the test on CHO K1 cells (CHO K1 cells), the “times more effective at potentiating Ant-44 than compound 9” value is reported as “approximately 12.5 times”. The EC50 came to 60 nM in the test on CHO K1 cells (CHO K1 cells, 48 h (FIG. 5), read-out: Ant-44 potentiation EC50) and 60 nM with CHO K1 cells (CHO cells, 48 h, read-out: Ant44 potentiation assay EC50). Further, in the test with L3.6pl cells, the “intracellular levels of polyamine metabolites” value was “lower levels of polyamines and N-acetylspermine”. The 3H-Leucine uptake result on LAT-1 was “able to inhibit the uptake”. Also, the IC50 in the test on CHO-MG cells came to 8930 ± 750 nM.
